Laboratory results taken from patent US20220257774A1, “AROMATIC AMINE AR AHD BET TARGETING PROTEIN DEGRADATION CHIMERA COMPOUND AND USE” (HINOVA PHARMACEUTICALS INC., priority 2019, published 2022).

Assays:
Format in all cases: cell-based
LNCaP/AR cells = assay: Inhibition of the proliferation of LNCap/AR cells (CCK-8); details: 144 h; LNCaP/AR cells, 6 days culture, CCK-8; read-out: LNCap/AR IC50
Method in brief: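 Proliferation was read by CCK-8 (OD 450 nm, 1 h) after six days of compound exposure. Cells were seeded at 1000 per well overnight, then dosed in duplicate over nine 3-fold steps with a top final concentration of 10 μM in 0.1% DMSO; IC50 was fitted from inhibition curves.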

22RV1 cells = assay: Inhibition of the proliferation of drug-resistant prostate cancer cell 22RV1 (CCK-8); details: Homo sapiens; 22RV1 cells (enzalutamide-resistant), same method
Method in brief: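 22RV1 cells, 1000/well in RPMI1640 with 10% FBS, treated in duplicate with 9-point 3-fold dilutions from 10 μM (0.1% DMSO final). After 6 days at 37 °C, CCK-8 added for 1 h and OD450 read. IC50 from dose-response inhibition fit.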

Androgen receptor (AR) = assay: Down-regulation/degradation of AR determined by Western blot in CWR22RV1 cells; details: concentration 100 nM, 24 h
Protocol: (§1) The Down-Regulation on the Protein Expression of Androgen Receptors AR and Brd4 Determined by Western Blot CWR22RV1 cells (National Collection of Authenticated Cell Cultures. TCHu100) FBS (Gibco, Cat. No. 10099-141) 0.01M PBS (Biosharp. Cat. No. 162262) RIPM1640 (Hyclone, Cat. No. 308090.01) Penicillin-Streptomycin (Hyclone. Cat. No. SV30010) DMSO (Sigma. Cat. No. D5879) Centrifuge tube, 15 ml (Excell Bio. Cat. No. CS015-0001) Cell culture plate (Excell Bio. Cat. No. CS016-0128) 6-well cell culture cluster (Corning, Cat. No. 3516) RIPA lysate buffer (Beyotime, Cat. No. P0013B) Protein loading buffer (Beyotime, Cat. No. P0015L) CA protein assay kit (Beyotime, Cat. No. P0012) SDS-PAGE gel preparation kit (Chengdu Baihe Technology Co., Ltd. Cat. No. PG112) Anti-β-tubulin mouse mAb (Zen Bioscience, Cat. No. 200608) Androgen Receptor ([…]) XP Rabbit mAb (CST. Cat. No. 5153) Anti-cMyc(D3N8F) Rabbit mAb (CST. Cat. No. 13987) Anti-BRD4(E2A7X) rabbit mAb (CST, Cat. No. 13440) Peroxidase Affinipure(HRP) Goat Anti-Mouse IgG (Zen Bioscience, Cat. No. 511103) Peroxidase Affinipure(HRP) Goat Anti-Rabbit IgG (Zen Bioscience, Cat. No. 511203) TBST (Biosharp. Cat. No. B[…]) ECL chemiluminescence kit (Beyotime, Cat. No. […]1 cells were subcultured in cell culture media, and then the cells in good growth condition were seeded in a 6-well plate at 2 ml/well (1×10^6 cells/well), and cultured overnight in a 37° C., 5% CO2 cell incubator. 2) The drug was prepared as a 10 mM stock solution with dimethyl sulfoxide (DMSO). […] The plate was gently tapped to thoroughly mix. In addition, the experiment included negative control wells (containing equal amount of DMSO) and positive control wells. 3) After culturing 24 hi, the cells were lysed with RIPA cell lysate, and the protein was extracted. […] The first antibody (Androgen Receptor ([…]) XP Rabbit mAb. Anti-cMyc(D3N8F) Rabbit mAb, Anti-BRD4(E2A7X) rabbit mAb and Anti-β-Tubulin Mouse mAb) was added and incubated overnight at 4° C. The membrane was rinsed with TBST solution three times, 10 min for each time. The secondary antibody (horseradish peroxidase labeled goat anti mouse IgG) was added and incubated at room temperature for 2 h, and then the membrane was washed with TBST solution three times, 10 m for each time. Finally. ECL chemiluminescence solution was added, and then photos were taken with automatic chemiluminescence instrument to collect pictures for analysis.

BRD4 = target: T1, BRD4 (Homo sapiens, UniProt O60885); assay: Down-regulation/degradation of BRD4 determined by Western blot in CWR22RV1 cells; details: concentration 100 nM, 24 h
T1 construct: CWR22RV1 cells were subcultured in cell culture media; endogenous in cells; host or cells: CWR22RV1 cells
Protocol: as §1

| Compound | IC50 (LNCaP/AR cells) | IC50 (22RV1 cells) | AR (% degradation) (Androgen receptor (AR)) | BRD4 (% degradation) (BRD4) |
| --- | --- | --- | --- | --- |
| Cc1ccc(-c2c(C)noc2C)cc1N(CC(C)OC1CN(c2ccc3c(c2)CN(C2CCC(=O)NC2=O)C3=O)C1)c1ccc(C2(C#N)CC2)cc1 (stereo not shown) [Compound 180, 1-(4-((5-(3,5-dimethylisoxazol-4-yl)-2-methylphenyl)(2-((1-(2-(2,6-dioxopiperidin-3-yl)-1-oxoisoindolin-5-yl)azacyclobutane-3-yl)oxy)propyl)amino)phenyl)cyclopropane-1-nitrile] | < 100 nM | < 100 nM | D (<20% of the target protein was degraded) | A (>80% of the target protein was degraded) |
| Cc1ccc(-c2c(C)noc2C)cc1N(CC1CCN(CCNc2ccc3c(c2)C(=O)N(C2CCC(=O)NC2=O)C3=O)CC1)c1ccc(C2(C#N)CC2)cc1 (stereo not shown) [Compound 117] | 501 to 2000 nM | < 100 nM | D (<20% of the target protein was degraded) | B (79%-50% of the target protein was degraded) |
| Cc1ccc(-c2c(C)noc2C)cc1N(CCC1CN(c2cc3c(cc2F)C(=O)N(C2CCC(=O)NC2=O)C3=O)C1)c1ccc(C2(C#N)CC2)cc1 (stereo not shown) [Compound 129, 1-(4-((5-(3,5-Dimethylisoxazol-4-yl)-2-methylphenyl)(2-(1-(2-(2,6-dioxopiperidin-3-yl)-6-fluoro-1,3-dioxoisoindolin-5-yl)azetidin-3-yl)ethyl)amino)phenyl)cyclopropane-1-carbonitrile] | 101 to 500 nM | < 100 nM | C (49%-20% of the target protein was degraded) | B (79%-50% of the target protein was degraded) |

Further lines, with some results ahead:

| IC50 (LNCaP/AR cells) | IC50 (22RV1 cells) | Compound | AR (% degradation) (Androgen receptor (AR)) | BRD4 (% degradation) (BRD4) |
| --- | --- | --- | --- | --- |
| < 100 nM | < 100 nM | Cc1ccc(-c2c(C)noc2C)cc1N(C[C@H]1CC[C@H](CNc2ccc3c(c2)C(=O)N(C2CCC(=O)NC2=O)C3)CC1)c1ccc(C2(C#N)CC2)cc1 (stereo partly shown) [Compound 193] | D (<20% of the target protein was degraded) | B (79%-50% of the target protein was degraded) |
| 101 to 500 nM | 101 to 500 nM | Cc1ccc(-c2c(C)noc2C)cc1N(CC1CCN(c2cc3c(cc2F)CN(C2CCC(=O)NC2=O)C3=O)CC1)c1ccc(C2(C#N)CC2)cc1 (stereo not shown) [Compound 127, 1-(4-((5-(3,5-dimethylisoxazol-4-yl)-2-methylphenyl)((1-(2-(2,6-dioxopiperidin-3-yl)-6-fluoro-3-oxoisoindolin-5-yl)piperidin-4-yl)methyl)amino)phenyl)cyclopropane-1-nitrile] | D (<20% of the target protein was degraded) | B (79%-50% of the target protein was degraded) |
| 501 to 2000 nM | 501 to 2000 nM | Cc1ccc(-c2c(C)noc2C)cc1N(CCCOC1CN(c2cc3c(cc2F)CN(C2CCC(=O)NC2=O)C3=O)C1)c1ccc(C2(C#N)CC2)cc1 (stereo not shown) [Compound 123, 1-(4-((5-(3,5-dimethylisoxazol-4-yl)-2-methylphenyl)(3-((1-(2-(2,6-dioxopiperidin-3-yl)-6-fluoro-3-oxoisoindolin-5-yl)azetidin-3-yl)oxy)propyl)amino)phenyl)cyclopropane-1-nitrile] | D (<20% of the target protein was degraded) | C (49%-20% of the target protein was degraded) |
| 501 to 2000 nM | 501 to 2000 nM | Cc1ccc(-c2c(C)noc2C)cc1N(CCOC1(C)CN(c2cc3c(cc2F)C(=O)N(C2CCC(=O)NC2=O)C3)C1)c1ccc(C2(C#N)CC2)cc1 (stereo not shown) [Compound 113, 1-(4-((5-(3,5-Dimethylisoxazol-4-yl)-2-methylphenyl)(2-((1-(2-(2,6-dioxopiperidin-3-yl)-6-fluoro-1-oxoisoindolin-5-yl)-3-methylazetidin-3-yl)oxy)ethyl)amino)phenyl)cyclopropanecarbonitrile] | D (<20% of the target protein was degraded) | C (49%-20% of the target protein was degraded) |
